What is called Ki is a measure of affinity in units of concentration, obtained from inhibition or displacement.

Where “and” joins values, the source holds several entries; their conditions need not be identical. Identical values can stand only once. Entries after “also recorded” stand apart in the source; their conditions may differ.

The conditions of data set [1]: oral and/or intravenous, 10, 25, 50 and 100 mg/kg body weight; cited from earlier work.
Data set [2] has as its system isolated rat aortic rings. Description: Organ bath tension of isolated rat aortic rings (intact and denuded) precontracted with norepinephrine. Particulars: for Tension of aortic rings: after 0.3 uM norepinephrine. Format: cell-based.
The test system of data set [3] is human saphenous vein rings and rat aortic rings. In kind it is cell-based.
The conditions of data set [4]: in vivo; cited from earlier work.
For data set [5] the following is noted: cited from earlier work.
The target in another data set is human NK(1) receptor (Homo sapiens, UniProt P25103). Particulars: cited from earlier work.
Data set [6] concerns NK(2) and NK(3) receptors. Particulars: vs NK(1); cited from earlier work.
Data set [7] relates to vascular smooth muscle cells. Particulars: cited from earlier work.

Sequence of human NK(1) receptor (P25103 whole entry): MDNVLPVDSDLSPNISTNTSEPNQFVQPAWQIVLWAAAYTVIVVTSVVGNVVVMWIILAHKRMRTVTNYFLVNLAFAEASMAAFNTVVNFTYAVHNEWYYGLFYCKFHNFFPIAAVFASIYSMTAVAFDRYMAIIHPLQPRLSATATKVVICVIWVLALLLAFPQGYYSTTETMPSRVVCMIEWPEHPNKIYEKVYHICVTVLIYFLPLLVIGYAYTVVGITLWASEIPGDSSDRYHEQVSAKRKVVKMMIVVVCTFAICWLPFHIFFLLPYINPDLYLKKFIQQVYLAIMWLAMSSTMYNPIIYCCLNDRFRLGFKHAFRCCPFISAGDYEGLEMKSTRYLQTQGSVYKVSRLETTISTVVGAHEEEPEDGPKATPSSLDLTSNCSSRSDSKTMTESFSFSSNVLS

In the case of `NC(=O)c1ncn([C@@H]2O[C@H](CO)[C@@H](O)[C@H]2O)c1N` [Acadesine, 5-amino-4-imidazole carboxamide ribonucleoside], in data set [1], the Safety in humans entry is “safe in humans”.

For the compound `CCN(CC)CC(=O)Nc1c(C)cccc1C` [Lidocaine], the “Concentration at which tension begins to decrease by over 5% relative to the precontracted state” value in data set [2] (denuded rings) and in data set [2] (intact rings) was 200 µM each time. Also, the “Relaxation (percent tension decrease) relative to the precontracted state” value is reported as 7% in data set [2] (denuded rings, 200 uM); “no change” in data set [2] (intact rings, 10 uM); “no change” in data set [2] (intact rings, 50 uM); 5% in data set [2] (intact rings, 100 uM); 24% in data set [2] (intact rings, 400 uM). Further, the “Extent of relaxation, percentage of precontracted norepinephrine tension” value in data set [2] (denuded rings, drug 10 μM) was 100.0 ± 0.4%; in data set [2] (denuded rings, drug 60 μM), 99.4 ± 0.4%; in data set [2] (denuded rings, drug 160 μM), 96.8 ± 0.7%; in data set [2] (denuded rings, drug 360 μM) it was 93.4 ± 0.6%; in data set [2] (denuded rings, drug 1060 μM) it was 82.4 ± 1.0%; in data set [2] (denuded rings, drug 1560 μM) it was 75.8 ± 2.0%. Besides, the “Extent of relaxation, percentage of precontracted norepinephrine tension” value is 99.7 ± 0.2% in data set [2] (intact rings, drug 10 μM); 97.8 ± 0.7% in data set [2] (intact rings, drug 60 μM); 96.2 ± 0.6% in data set [2] (intact rings, drug 160 μM); 91.7 ± 0.5% in data set [2] (intact rings, drug 360 μM); 84.4 ± 1.2% in data set [2] (intact rings, drug 660 μM); 76.2 ± 3.5% in data set [2] (intact rings, drug 1060 μM). Further, the “Extent of relaxation, percentage of precontracted norepinephrine tension” value in data set [2] (intact rings, drug 1560 μM) was 72.2 ± 3.5%. For the same compound, the “Tension of aortic rings” value amounted to 3.32 ± 0.12 g in data set [2] (denuded rings, drug 10 μM); 3.31 ± 0.12 g in data set [2] (denuded rings, drug 60 μM); 3.24 ± 0.12 g in data set [2] (denuded rings, drug 160 μM); 3.11 ± 0.12 g in data set [2] (denuded rings, drug 360 μM); 2.92 ± 0.12 g in data set [2] (denuded rings, drug 660 μM); 2.75 ± 0.12 g in data set [2] (denuded rings, drug 1060 μM). In addition, the “Tension of aortic rings” value in data set [2] (denuded rings, drug 1560 μM) is recorded as 2.53 ± 0.13 g; in data set [2] (intact rings, drug 10 μM) it was 3.57 ± 0.08 g; in data set [2] (intact rings, drug 60 μM), 3.50 ± 0.08 g; in data set [2] (intact rings, drug 160 μM) it was 3.44 ± 0.07 g; in data set [2] (intact rings, drug 360 μM), 3.28 ± 0.07 g; in data set [2] (intact rings, drug 660 μM), 3.02 ± 0.07 g. The “Tension of aortic rings” value in data set [2] (intact rings, drug 1060 μM) was 2.73 ± 0.13 g; in data set [2] (intact rings, drug 1560 μM) it was 2.59 ± 0.14 g. Further, the “Tension expressed as a percent of baseline” value came out at 100% in data set [2] (intact rings, 10 uM); 96% in data set [2] (intact rings, 50 uM); 96% in data set [2] (intact rings, 100 uM); 91% in data set [2] (intact rings, 200 uM); 84% in data set [2] (intact rings, 300 uM); 76% in data set [2] (intact rings, 400 uM). The “Tension expressed as a percent of baseline” value in data set [2] (intact rings, 500 uM) amounted to 72%. The “Relaxation relative to the relaxation of intact adenosine alone” value in data set [2] (intact rings, 300 uM) amounted to 14%; in data set [2] (intact rings, 400 uM) it was 30%; in data set [2] (intact rings, 500 uM), 30%. Further, the “Dependence of relaxation on an intact endothelium (denuded vs intact rings)” value in data set [2] is “endothelium independent; also recorded: does not appear to be endothelium dependent”.

In the case of Botulinum toxin type A, in data set [3], the “Relaxation of vascular smooth muscle” value is “dose dependent relaxation”.

As for `CSCC[C@@H]1NC(=O)[C@H](CC(C)C)NC(=O)[C@H](CCCNC(=N)N)NC(=O)[C@H](CO)NC(=O)[C@@H]2CSSC[C@@H]3NC(=O)[C@H](CO)NC(=O)CNC(=O)[C@H]([C@@H](C)O)NC(=O)[C@H](CSSC[C@H](N)C(=O)N[C@@H](CCCCN)C(=O)NCC(=O)N[C@@H](CCCCN)C(=O)NCC(=O)N[C@@H](C)C(=O)N[C@@H](CCCCN)C(=O)N2)NC(=O)[C@H](CSSC[C@@H](C(N)=O)NC(=O)[C@H](CCCCN)NC(=O)CNC(=O)[C@H](CO)NC(=O)[C@H](CCCNC(=N)N)NC3=O)NC(=O)[C@H](CC(=O)O)NC(=O)[C@H](Cc2ccc(O)cc2)NC1=O` [Omega conotoxin MVIIA], the “Potency as an analgesic relative to morphine” value in data set [4] was 100-1000 fold.

For the compound `Nc1ncnc2c1ncn2[C@@H]1O[C@H](CO)[C@@H](O)[C@H]1O` [Adenosine, 6-amino-9-β-D-ribofuranosyl-9H-purine], the “Relaxation of denuded rings as percent of the relaxation of intact rings” value in data set [2] (400 uM) came out at 35%; in data set [2] (500 uM) it was 44%. For the same compound, the “Greater falls in tension than lidocaine alone” value in data set [2] (at 400 and 500 uM) is recorded as “about 30%”. Further, the figures for the “Concentration at which tension begins to decrease by over 5% relative to the precontracted state” value in data set [2] (denuded rings) and in data set [2] (intact rings) were 300 µM and 100 µM, respectively. In addition, the “Tension expressed as a percent of baseline” value in data set [2] (denuded rings, 10 uM) is 100%; in data set [2] (denuded rings, 50 uM), 100% and 99%; in data set [2] (denuded rings, 100 uM), 99% and 98%; in data set [2] (denuded rings, 200 uM), 95% and 93%; in data set [2] (denuded rings, 300 uM), 88%; in data set [2] (intact rings, 10 uM) it was 99%. For the same compound, the “Tension expressed as a percent of baseline” value was found to be 96% in data set [2] (intact rings, 50 uM); 89% in data set [2] (intact rings, 100 uM); 76% in data set [2] (intact rings, 200 uM); 61% in data set [2] (intact rings, 300 uM); 48% in data set [2] (intact rings, 400 uM); 39% in data set [2] (intact rings, 500 uM). For the same compound, the “Relaxation (percent tension decrease) relative to the precontracted state” value in data set [2] (denuded rings, 200 uM) is 4%; in data set [2] (intact rings, 10 uM) it was “no change”; in data set [2] (intact rings, 50 uM), “no change”. Besides, the “Extent of relaxation, percentage of precontracted norepinephrine tension” value amounted to 100.3 ± 0.2% in data set [2] (denuded rings, drug 10 μM); 100.0 ± 0.4% in data set [2] (denuded rings, drug 60 μM); 98.9 ± 0.5% in data set [2] (denuded rings, drug 160 μM); 95.2 ± 1.1% in data set [2] (denuded rings, drug 360 μM); 87.6 ± 2.3% in data set [2] (denuded rings, drug 660 μM); 76.6 ± 3.4% in data set [2] (denuded rings, drug 1060 μM). Further, the “Extent of relaxation, percentage of precontracted norepinephrine tension” value worked out at 62.4 ± 4.2% in data set [2] (denuded rings, drug 1560 μM); 99.0 ± 0.3% in data set [2] (intact rings, drug 10 μM); 96.2 ± 0.7% in data set [2] (intact rings, drug 60 μM); 89.7 ± 1.5% in data set [2] (intact rings, drug 160 μM); 76.3 ± 3.1% in data set [2] (intact rings, drug 360 μM); 60.7 ± 4.2% in data set [2] (intact rings, drug 660 μM). In addition, the “Extent of relaxation, percentage of precontracted norepinephrine tension” value came out at 48.5 ± 3.9% in data set [2] (intact rings, drug 1060 μM) and 38.9 ± 2.8% in data set [2] (intact rings, drug 1560 μM). Moreover, the “Tension of aortic rings” value in data set [2] (denuded rings, drug 10 μM) turned out to be 3.56 ± 0.08 g; in data set [2] (denuded rings, drug 60 μM), 3.55 ± 0.09 g; in data set [2] (denuded rings, drug 160 μM), 3.51 ± 0.09 g; in data set [2] (denuded rings, drug 360 μM), 3.39 ± 0.11 g; in data set [2] (denuded rings, drug 660 μM), 3.12 ± 0.14 g; in data set [2] (denuded rings, drug 1060 μM), 2.73 ± 0.17 g. For the same compound, the “Tension of aortic rings” value in data set [2] (denuded rings, drug 1560 μM) stood at 2.23 ± 0.17 g; in data set [2] (intact rings, drug 10 μM), 3.65 ± 0.12 g; in data set [2] (intact rings, drug 60 μM), 3.54 ± 0.11 g; in data set [2] (intact rings, drug 160 μM), 3.30 ± 0.09 g; in data set [2] (intact rings, drug 360 μM) it was 2.81 ± 0.11 g; in data set [2] (intact rings, drug 660 μM) it was 2.23 ± 0.14 g. Moreover, the “Tension of aortic rings” value in data set [2] (intact rings, drug 1060 μM) is on record as 1.78 ± 0.13 g; in data set [2] (intact rings, drug 1560 μM), 1.43 ± 0.08 g. Further, the “Maximum relaxation relative to the precontracted state” value in data set [2] (intact rings, at 500 uM) was determined as 48%. Also, the “Dependence of relaxation on an intact endothelium (denuded vs intact rings)” value in data set [2] is on record as “dependent on an intact endothelium”. Further, the “Half life in the blood” value in data set [5] is “about 10 seconds”.

For `Cc1cccc(C)c1NC(=O)C[C@H]1CCN(C(=O)c2cc(C(F)(F)F)cc(C(F)(F)F)c2)[C@@H](Cc2ccccc2)C1.O=C(O)C[C@H](O)C(=O)O` (relative stereo) [R116301, (2R-trans)-4-[1-[3,5-bis(trifluoromethyl)benzoyl]-2-(phenylmethyl)-4-piperidinyl]-N-(2,6-dimethylphenyl)-1-acetamide (S)-Hydroxybutanedioate], the Ki at human NK(1) receptor was 0.45 nM. The “Selectivity toward NK(2) and NK(3) receptors” value in data set [6] is “over 200 fold”.

On to `OCCN(CCO)c1nc(N2CCCCC2)c2nc(N(CCO)CCO)nc(N3CCCCC3)c2n1` [Dipyridamole], for which the “Inhibition of growth of vascular smooth muscle cells” value in data set [7] (75 microg/mL (0.150 mM), Kim et al) is given as “approximately 90%”. Further, the “Duration of sustained antiproliferative effects” value in data set [7] (after drug exposure of only 15 min) is 48 h.

The values are drawn from patent US8946189B2, “Transplants” (priority 2007, dated 2015).
